Data set [1] concerns SARS-CoV-2 clinical isolate. To be noted: Vero/hSLAM cells, cited from earlier work.
Another data set relates to SARS-CoV-2. In words: Ivermectin effect on preventing SARS-CoV-2 infection of pretreated Vero-E6 cells (qRT-PCR). It counts as cell-based. How it is done: Assessment of Ivermectin effect on preventing SARS-CoV-2 infection Vero-E6 cells were incubated with 0.01, 0.025, 0.05, 0.1, 0.5, 1 or 5 μM concentrations of ivermectin during 2, 6, 16 or 24 hours. Then, cells were infected with SARS-CoV-2 at a multiplicity of infection (MOI) of 0.001, 0.01 or 0.1. After 2 hours of incubation in the presence of the virus, medium with the same concentration of ivermectin was added again. After 24, 48 or 72 hours, viral charge is quantified by qRT-PCR.

In a further data set the test system is Zika virus (ZIKV). The note with it: mice; cited from earlier work.
Another data set concerns Vero-E6 cells. In words: Cytotoxicity in non-infected Vero-E6 cells (cell viability). Format: cell-based. To be noted: 0.01-5 μM ivermectin. The protocol: For avoiding false positives, cytotoxicity was evaluated by culturing non-infected cells in the same conditions and with the same concentrations of ivermectin. Cell viability was then determined.
For another data set, the system named is DENV. To be noted: single daily oral dose; cited from earlier work.

On to ivermectin, for which the “antiviral action in vitro” value in data set [1] was “has antiviral action”. For the same substance, the “time within which a single dose controls viral replication” value in data set [1] (single dose) is 24 to 48 h. Besides, the “preincubation-time dependency of inhibition of viral replication” value with SARS-CoV-2 (72 hours post-infection, preincubation 2, 6, 16 or 24 hours) was “the longer the preincubation time with ivermectin, the higher the inhibition of viral replication”. In the data set with SARS-CoV-2 (cells pretreated with ivermectin at 5 μM), the “viral replication (RT-qPCR)” value is on record as “highly inhibited”. Further, the “effectiveness against Zika virus” value with Zika virus (ZIKV) was “not effective”. Moreover, the cell toxicity result in the data set on Vero-E6 cells was “No cell toxicity”. Also, in the data set on DENV, the safety result is on record as “safe”, the “serum levels of viral NS1 protein” value is “significant reduction” and the “viremia or clinical benefit” value is given as “no change”.

The values are drawn from US20240099964A1, “Methods and Compositions for the Prophylactic Treatment of SARS-CoV-2 virus (COVID-19)” (MedinCell S.A., priority 2020, published 2024).
